Assays:
[1] = biological target: T1, CDK4/cyclin D3 (Homo sapiens, UniProt P11802); experiment: Human CDK4/cyclin D3 inhibitory activity (QS S Assist CDK4/Cyclin D3_FP Kit, IMAP fluorescent polarization); assay type: biochemical; conditions: read-out: CDK4 Activity symbol
T1 construct: purchased Carna Biosciences, Inc. QS S Assist CDK4/Cyclin D3_FP Kit
Description: Human CDK4/Cyclin D3 Inhibitory Activity
(§1) Each compound was analyzed for CDK4/cyclin D3 inhibitory activity with an assay kit (QS S Assist CDK4/Cyclin D3_FP Kit, available from Carna Biosciences, Inc.). This assay kit determines kinase activity on the basis of the IMAP technology by Molecular Devices. Specifically, the kinase activity is determined through quantification of a variation in fluorescent polarization caused by binding of a kinase-phosphorylated fluorescent substance to an IMAP-binding reagent.
Each solution was prepared with the 10× assay buffer attached to the kit or a separately prepared assay buffer having the same composition as the assay buffer attached to the kit. An assay buffer was prepared by 10-fold dilution of the 10× assay buffer with distilled water. The assay buffer contains 20 mM HEPES (pH 7.4), 0.01% Tween20, and 2 mM dithiothreitol. A test compound solution was prepared by dilution of the test compound with dimethyl sulfoxide (DMSO) to a concentration 100 times higher than the final concentration and then 25-fold dilution with the assay buffer to a concentration four times higher than the final concentration. An ATP/substrate/Metal solution was prepared by five-fold dilution of the 5×ATP/substrate/Metal solution attached to the kit with the assay buffer. An enzyme solution was prepared by dilution of the CDK4/cyclin D3 attached to the kit with the assay buffer to a concentration twice higher than the final concentration (final concentration of CDK4/cyclin D3: 12.5 to 25 ng/well). A detection reagent was prepared by five-fold dilution of each of 5×IMAP-binding buffer A and 5×IMAP-binding buffer B with distilled water, mixing of IMAP-binding buffer A with IMAP-binding buffer B at a ratio of 85:15, and 400-fold dilution of the IMAP-binding reagent with the mixed buffer.
(§2) The test compound solution (5 μL/well) and the ATP/substrate/Metal solution (5 μL/well) were added to a 384-well plate, and the enzyme solution or the assay buffer (10 μL/well) was added to the plate (total amount of the reaction mixture: 20 μL/well) for initiation of enzymatic reaction. […] The reaction was performed at room temperature for 45 minutes, and the detection reagent (60 μL/well) was then added to the plate, followed by further reaction for 30 minutes at room temperature under light shielding conditions. Subsequently, fluorescent polarization was determined with a microplate reader at an excitation wavelength of 485 nm and an emission wavelength of 535 nm.
(§3) The percent inhibition of enzyme activity was calculated for each test compound (note: enzyme activity=100% in the case of addition of the enzyme solution and addition of DMSO instead of the test compound solution, whereas enzyme activity […] in the case of addition of the assay buffer instead of the enzyme solution, and addition of DMSO instead of the test compound solution). The percent inhibition of enzyme activity was fitted to a dose-response curve, to determine a 50% inhibitory concentration against CDK4/cyclin D3.
In each table, “+++” corresponds to IC50<10 nM. “++” 10 nM […] IC50<100 nM, and “+” 100 nM≤IC50.

[2] = biological target: T2, CDK2/cyclin A2 (Homo sapiens, UniProt P24941); experiment: Human CDK2/cyclin A2 inhibitory activity (QS S Assist CDK2/Cyclin A2_FP Kit, IMAP fluorescent polarization); assay type: biochemical; conditions: read-out: CDK2 Activity symbol
T2 construct: purchased Carna Biosciences, Inc. QS S Assist CDK2/Cyclin A2_FP Kit
Description: Human CDK2/Cyclin A2 Inhibitory Activity
as §1, with “CDK2/cyclin A2” for “CDK4/cyclin D3”, “CDK2/Cyclin A2_FP” for “CDK4/Cyclin D3_FP”
An assay buffer was prepared by 10-fold dilution of the 10× assay buffer attached to the kit with distilled water, and each solution was prepared with the assay buffer. The assay buffer contained 20 mM HEPES (pH 7.4), 0.01% Tween 20, and 2 mM dithiothreitol. A test compound solution was prepared by dilution of the test compound with dimethyl sulfoxide (DMSO) to a concentration 100 times higher than the final concentration and then 25-fold dilution with the assay buffer to a concentration four times higher than the final concentration. An ATP/substrate/Metal solution was prepared by five-fold dilution of the 5×ATP/substrate/Metal solution attached to the kit with the assay buffer. An enzyme solution was prepared by dilution of the CDK2/cyclin A2 attached to the kit with the assay buffer to a concentration twice higher than the final concentration (final concentration of CDK2/cyclin A2: 2.5 ng/well). A detection reagent was prepared by five-fold dilution of 5×IMAP-binding buffer A with distilled water and 400-fold dilution of the IMAP-binding reagent with the diluted buffer.
as §2, with “60” for “45”
as §3, with “enzyme solution” for “enzyme solution,”, “against CDK2/cyclin A2.” for “against CDK4/cyclin D3.”
In each table, “+++” corresponds to IC50<10 nM, “++” 10 nM≤IC50<100 nM, and “+” 100 nM≤IC50.

T1 sequence (P11802 whole entry): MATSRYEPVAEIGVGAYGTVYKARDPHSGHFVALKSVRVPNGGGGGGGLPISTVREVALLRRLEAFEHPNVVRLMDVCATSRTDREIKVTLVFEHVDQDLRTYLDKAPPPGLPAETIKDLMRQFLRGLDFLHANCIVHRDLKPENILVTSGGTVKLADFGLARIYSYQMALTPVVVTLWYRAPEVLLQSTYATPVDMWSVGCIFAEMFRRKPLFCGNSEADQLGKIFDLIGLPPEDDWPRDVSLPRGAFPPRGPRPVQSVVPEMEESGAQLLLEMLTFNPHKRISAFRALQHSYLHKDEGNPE
T1 sequence (P30281 whole entry partner): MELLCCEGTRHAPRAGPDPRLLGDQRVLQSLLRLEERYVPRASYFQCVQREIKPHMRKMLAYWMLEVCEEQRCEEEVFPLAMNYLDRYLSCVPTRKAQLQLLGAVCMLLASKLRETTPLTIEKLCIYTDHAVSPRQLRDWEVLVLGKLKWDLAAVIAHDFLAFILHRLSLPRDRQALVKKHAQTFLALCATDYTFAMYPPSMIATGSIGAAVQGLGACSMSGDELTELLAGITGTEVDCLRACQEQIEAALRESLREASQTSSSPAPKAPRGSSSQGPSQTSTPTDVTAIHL

| SMILES | IC50 [1] [nM] | IC50 [2] [nM] |
| --- | --- | --- |
| CN1CCN(c2ccc(Nc3ncc4cc(CO)nc(N5CCOCC5)c4n3)nc2)CC1 [Compound 1] | < 10 | ≥ 100 |
| CN1CCN(c2ccc(Nc3ncc4cc(CO)nc(N5CCCCC5)c4n3)nc2)CC1 [Compound 2] | < 10 | ≥ 100 |
| CN1CCN(c2ccc(Nc3ncc4cc(CO)nc(N5CCCCC5=O)c4n3)nc2)CC1 [Compound 3] | ≥ 100 | ≥ 100 |
| CN1CCN(c2ccc(Nc3ncc4cc(C(F)F)nc(N5CCOCC5)c4n3)nc2)CC1 [Compound 4] | 10 to 100 | ≥ 100 |
| CN1CCN(c2ccc(Nc3ncc4cc(CO)nc(C5CCCCC5)c4n3)nc2)CC1 [Compound 5] | < 10 | ≥ 100 |
| CN1CCN(c2ccc(Nc3ncc4cc(CO)nc(-c5ccccc5)c4n3)nc2)CC1 [Compound 6] | < 10 | ≥ 100 |
| OCc1cc2cnc(Nc3ccc(N4CCNCC4)cn3)nc2c(N2CCOCC2)n1 [Compound 7] | < 10 | ≥ 100 |
| FC(F)c1cc2cnc(Nc3ccc(N4CCNCC4)cn3)nc2c(N2CCOCC2)n1 [Compound 8] | 10 to 100 | ≥ 100 |
| OCc1cc2cnc(Nc3ccc(N4CCNCC4)cn3)nc2c(N2CCCCC2)n1 [Compound 9] | < 10 | – |
| OCc1cc2cnc(Nc3ccc(N4CCNCC4)cn3)nc2c(-c2ccccc2)n1 [Compound 10] | 10 to 100 | – |
| FC(F)c1cc2cnc(Nc3ccc(N4CCNCC4)cn3)nc2c(N2CCCCC2)n1 [Compound 11] | < 10 | – |
| FC(F)c1cc2cnc(Nc3ccc(N4CCNCC4)cn3)nc2c(-c2ccccc2)n1 [Compound 12] | < 10 | – |
| CN1CCN(c2ccc(Nc3ncc4cc(C(F)F)nc(N5CCCCC5)c4n3)nc2)CC1 [Compound 13] | < 10 | – |
| Cc1ccc(-c2nc(CO)cc3cnc(Nc4ccc(N5CCNCC5)cn4)nc23)cc1 [Compound 14] | < 10 | – |
| Cc1ccccc1-c1nc(CO)cc2cnc(Nc3ccc(N4CCNCC4)cn3)nc12 [Compound 15] | 10 to 100 | – |
| OCc1cc2cnc(Nc3ccc(N4CCNCC4)cn3)nc2c(-c2ccsc2)n1 [Compound 16] | < 10 | – |
| OCc1cc2cnc(Nc3ccc(N4CCNCC4)cn3)nc2c(-c2ccoc2)n1 [Compound 17] | 10 to 100 | – |
| Cc1ccc(-c2nc(CO)cc3cnc(Nc4ccc(N5CCN(C)CC5)cn4)nc23)cc1 [Compound 18] | < 10 | – |
| Cc1ccccc1-c1nc(CO)cc2cnc(Nc3ccc(N4CCN(C)CC4)cn3)nc12 [Compound 19] | < 10 | – |
| CN1CCN(c2ccc(Nc3ncc4cc(CO)nc(-c5ccsc5)c4n3)nc2)CC1 [Compound 20] | < 10 | – |
| CN1CCN(c2ccc(Nc3ncc4cc(CO)nc(-c5ccoc5)c4n3)nc2)CC1 [Compound 21] | 10 to 100 | – |
| CN1CCN(c2ccc(Nc3ncc4cc(CO)nc(C5=CCCCC5)c4n3)nc2)CC1 [Compound 22] | < 10 | – |
| O=C(O)c1cc2cnc(Nc3ccc(N4CCNCC4)cn3)nc2c(N2CCCCC2)n1 [Compound 23] | ≥ 100 | – |

| SMILES | IC50 [1] [nM] | IC50 [2] [nM] |
| --- | --- | --- |
| CC(O)c1cc2cnc(Nc3ccc(N4CCNCC4)cn3)nc2c(N2CCCCC2)n1 (stereo not shown) [Compound 24] | < 10 | ≥ 100 |
| COC(=O)c1cc2cnc(Nc3ccc(N4CCNCC4)cn3)nc2c(N2CCCCC2)n1 [Compound 25] | 10 to 100 | ≥ 100 |
| CC(=O)c1cc2cnc(Nc3ccc(N4CCNCC4)cn3)nc2c(N2CCCCC2)n1 [Compound 26] | 10 to 100 | ≥ 100 |
| CN(C)C(=O)c1cc2cnc(Nc3ccc(N4CCNCC4)cn3)nc2c(N2CCCCC2)n1 [Compound 27] | 10 to 100 | ≥ 100 |
| NC(=O)c1cc2cnc(Nc3ccc(N4CCNCC4)cn3)nc2c(N2CCCCC2)n1 [Compound 28] | 10 to 100 | ≥ 100 |
| CNC(=O)c1cc2cnc(Nc3ccc(N4CCNCC4)cn3)nc2c(N2CCCCC2)n1 [Compound 29] | 10 to 100 | ≥ 100 |
| Cc1ccccc1-c1nc(C(F)F)cc2cnc(Nc3ccc(N4CCNCC4)cn3)nc12 [Compound 30] | < 10 | ≥ 100 |
| COCc1cc2cnc(Nc3ccc(N4CCNCC4)cn3)nc2c(N2CCOCC2)n1 [Compound 32] | 10 to 100 | ≥ 100 |
| Cc1c(CO)nc(N2CCOCC2)c2nc(Nc3ccc(N4CCNCC4)cn3)ncc12 [Compound 33] | < 10 | ≥ 100 |
| CCC(O)c1cc2cnc(Nc3ccc(N4CCNCC4)cn3)nc2c(N2CCOCC2)n1 (stereo not shown) [Compound 34] | 10 to 100 | ≥ 100 |
| OC(c1cc2cnc(Nc3ccc(N4CCNCC4)cn3)nc2c(N2CCOCC2)n1)C(F)(F)F (stereo not shown) [Compound 35, 2,2,2-trifluoro-1-(8-morpholino-2-((5-(piperazin-1-yl)pyridin-2-yl)amino)pyrido[3,4-d]pyrimidin-6-yl)ethanol] | 10 to 100 | ≥ 100 |
| CC(F)(F)c1cc2cnc(Nc3ccc(N4CCNCC4)cn3)nc2c(N2CCOCC2)n1 [Compound 36] | ≥ 100 | ≥ 100 |
| CC(C)(O)c1cc2cnc(Nc3ccc(N4CCNCC4)cn3)nc2c(N2CCOCC2)n1 [Compound 37] | 10 to 100 | ≥ 100 |
| OCCc1cc2cnc(Nc3ccc(N4CCNCC4)cn3)nc2c(N2CCOCC2)n1 [Compound 38] | ≥ 100 | ≥ 100 |
| C[C@@H](O)c1cc2cnc(Nc3ccc(N4CCNCC4)nn3)nc2c(N2CCCC2C(=O)O)n1 (stereo partly shown) [Compound 39] | < 10 | ≥ 100 |
| C[C@@H](O)c1cc2cnc(Nc3ccc(N4CCNCC4)nn3)nc2c(N2CCCC(C(=O)O)C2)n1 (stereo partly shown) [Compound 40] | < 10 | ≥ 100 |
| C[C@@H](O)c1cc2cnc(Nc3ccc(N4CCNCC4)nn3)nc2c(N2CCCCC2C(=O)O)n1 (stereo partly shown) [Compound 41] | < 10 | ≥ 100 |
| COC(C)c1cc2cnc(Nc3ccc(CN4CCNCC4)cn3)nc2c(N2CCCCC2)n1 (stereo not shown) [Compound 43] | < 10 | – |
| COC(C)c1cc2cnc(Nc3ccc(CN4CCNCC4)cn3)nc2c(N2CCC3CCNC3C2)n1 (stereo not shown) [Compound 44] | < 10 | – |
| COC(C)c1cc2cnc(Nc3ccc(CN4CCNCC4)cn3)nc2c(N2CCC(CO)CC2)n1 (stereo not shown) [Compound 45] | < 10 | – |
| COCC1CCN(c2nc(C(C)OC)cc3cnc(Nc4ccc(CN5CCNCC5)cn4)nc23)CC1 (stereo not shown) [Compound 46] | < 10 | – |
| CC(O)c1cc2cnc(Nc3ccc(CN4CCN(C)CC4)cn3)nc2c(N2CCOCC2C)n1 (stereo not shown) [Compound 291] | < 10 | – |

From patent US11084814B2, “Pyrido[3, 4-d]pyrimidine derivative and pharmaceutically acceptable salt thereof” (Teijin Pharma Limited, priority 2016, dated 2021)
